From patent US11185499B2, “Multilayer thin film drug delivery device and methods of making and using the same” (The Regents of the University of California, priority 2011, dated 2021)

Assays:
[1] = Payload calculations and safety consideration; settings: device designed for delivery over 6 months, failure
Description: The loading requirements for a device are analyzed based upon a zero-order release profile that maintains concentration in the posterior of the eye for at least a 4 month period. For example, based on a 5 mm×5 mm thin-film with 20 nm pores, with a void space of 50% a maximal drug load in this device is 1.3 mg of lyophilized drug, with release rates as high 2 μg/day/mm^2 based on membrane experiments. Desired release rates depend on drug affinity, vitreous half-life, and target vitreous concentration. […] Complete dose dumping for a device designed for delivery over 6 months would produce systemic drug concentration of less than 3.4 ng/ml upon failure, which falls well below the 11-27 ng/ml threshold thought to inhibit VEGF by 50%. In addition, a multi-chambered reservoir (FIG. 10) minimizes the risk that the entire drug payload could be inadvertently dumped. Based upon conservative estimates of Lucentis© half-life in the vitreous humor, a device loaded with approximately 800 μg of drug is estimated to maintain therapeutic levels for a 6 month or longer period.

[2] = Release of FITC-BSA protein from nanostructured PCL devices; assay type: physicochemical; settings: nanostructured PCL devices (n=3), pore size 20-40 nm
Description: Multilayer thin film devices having pore sizes in the range of […]-40 nm were fabricated as described herein.

| Substance | systemic drug concentration upon complete dose dumping [1] | release rate [2] [µg/day] | time period of release [2] [days] |
| --- | --- | --- | --- |
| ranibizumab: anti-VEGF formulation (Lucentis, Genentech, Inc.) | less than 3.4 ng/ml |  |  |
| FITC-BSA: FITC-BSA protein released from nanostructured PCL devices |  | 1 | 210 |
